Literature values in patent publication US20030203004A1, “Compositions comprising short and long chain fatty acids and methods of their use for the management of body weight” (priority 2002, published 2003).

Key:
[1] = rats; jejunally infused neat, 0.2 mL/hr for seven hours
[2] = humans; sodium propionate included in bread; attributed to delayed gastric emptying rate
[3] = rats

| SMILES | total daily caloric intake [1] | satiety [2] | effect on gastric emptying [3] |
| --- | --- | --- | --- |
| CCCCC/C=C\C/C=C\CCCCCCCC(=O)O [linoleic acid] | significantly reduce |  |  |
| CCC(=O)[O-].[Na+] [sodium propionate] |  | induction of satiety | no effect |
| CCCCCCCC/C=C\CCCCCCCC(=O)O [oleic acid] | significantly reduce |  |  |
